Measurements taken from patent US20260034111A1, “NOVEL HETEROCYCLES AS sPLA2-X INHIBITORS” (Cayman Chemical Company Incorporated, priority 2022, published 2026).
Structures can show the parent of a compound that is named as a salt.

What was measured:
Type in all cases: biochemical
[1] = target: T1, recombinant human sPLA2-V enzyme (Homo sapiens, UniProt P39877); assay: sPLA2-V enzyme inhibition assay (thio-PC substrate, DTNB detection, absorbance 410 nm); details: class symbols; read-out: sPLA2 Type V Inhibition (IC50; nM)
T1 construct: made in house; host or cells: E. coli
T1 sequence (P39877 21-138): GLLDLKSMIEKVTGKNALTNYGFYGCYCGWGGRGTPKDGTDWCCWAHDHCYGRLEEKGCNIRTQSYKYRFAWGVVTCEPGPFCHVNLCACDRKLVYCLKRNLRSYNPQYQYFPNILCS
Text: (§1) Screening Compounds for Inhibition of sPLA2-X, sPLA2-V, and sPLA2-IIA Enzyme Activity
(§2) These sPLA2 enzymes hydrolyze the sn-2 acyl chains of glycerophospholipids, resulting in the release of a free fatty acid and a lysophospholipid. In the case of the thio-PC substrate, this enzymatic hydrolysis results in a free sulfhydryl group remaining on the lysophospholipid. This free sulfhydryl reacts with DTNB to produce the chromogenic product 5-nitro-2-thiobenzoic acid (TNB) which can be quantitated by absorbance at 410 nm. The amount of TNB produced reflects the hydrolytic activity of the enzyme.
(§3) The recombinant human sPLA2 groups IIA, V, and X enzymes were expressed in E. coli and purified to >90% purity by standard biochemical methods.
(§4) Procedure of Enzyme Inhibition for sPLA2-X • 1. […] Dilute the test compounds in 100% DMSO by half-log steps in a 96-well dilution plate using columns 1-11 (one compound per row). Column 12 contains DMSO alone with no compound. • 3. Prepare a 3.5 mM thio-PC substrate solution by drying down 7.2 mg of stock thio-PC in ethanol under a gentle stream of N2 gas. When dry, add 4 mL assay buffer (25 mM Tris, pH7.4; 100 mM KCl; 10 mM CaCl2; 0.1% Triton X-100) and warm in a 37° C. water bath for 20 minutes with intermittent vortexing. • 4. Prepare an “enzyme containing” reaction mix with the following components: 20.4 mL assay buffer; 2 mL DTNB (20 mM in 800 mM Tris, pH8.0); and 11.8 mg recombinant human sPLA2-X enzyme (>95% pure) diluted to a total of 0.8 mL assay buffer. • 5. Prepare a “no enzyme” reaction mix with the following components: 477 μL assay buffer and 45 μL DTNB. • 6. Dispense 58 μL “no enzyme” reaction mix into each of 8 wells (columns 23 and 24, rows M-P). • 7. Dispense 58 μL “enzyme containing” reaction mix into all remaining wells on the plate. • 8. From the 96-well compound dilution plate, add 2 μL from each well for each compound to each of 4 wells with “enzyme containing” reaction mix. Columns 23 and 24 on the assay plate will contain only DMSO (vehicle control). […] After compound addition, mix the contents of each well to ensure that the DMSO is evenly distributed in the well. • 9. Cover the plate and incubate in the dark at room temperature for 15 minutes. • 10. Add 10 μL of thio-PC substrate to all wells. The final concentration of thio-PC in the reactions is 0.5 mM. • 11. Cover the plate and incubate in the dark at room temperature for 30 minutes. • 12. Measure the absorbance of all wells at 410 nm. • 13. Determine the mean absorbance of the “no enzyme” wells. Subtract this value from the absorbance values determined for all other wells (these are now background corrected data). • 14. […] Procedure of Enzyme Inhibition for sPLA2-V • 1. […] Dilute the test compounds in 100% DMSO by half-log steps in a 96-well dilution plate using columns 1-11. Column 12 contains DMSO alone with no compound. • 3. Prepare a 3.5 mM thio-PC substrate solution by drying down 7.2 mg of stock thio-PC in ethanol under a gentle stream of N2 gas. When dry, add 4 mL assay buffer (25 mM Tris, pH7.4; 100 mM KCl; 10 mM CaCl2; 0.1% Triton X-100) and warm in a 37° C. water bath for 20 minutes with intermittent vortexing. • 4. Prepare an “enzyme containing” reaction mix with the following components: 20.4 mL assay buffer; 2 mL DTNB (20 mM in 800 mM Tris, pH8.0); and 12 mg recombinant human sPLA2-V enzyme (>95% pure) diluted to a total of 0.8 mL assay buffer. • 5. Prepare a “no enzyme” reaction mix with the following components: 477 μL assay buffer and […]. • 6. Dispense 58 μL “no enzyme” reaction mix into each of 8 wells (columns 23 and 24, rows M-P). • 7. Dispense 58 μL “enzyme containing” reaction mix into all remaining wells on the plate. • 8. From the 96-well compound dilution plate, add 2 μL from each well for each compound to each of 4 wells with “enzyme containing” reaction mix. Columns 23 and 24 on the assay plate will contain only DMSO (vehicle control).

[2] = target: T2, recombinant human sPLA2-IIA enzyme (Homo sapiens, UniProt P14555); assay: sPLA2-IIA enzyme inhibition assay (thio-PC substrate, DTNB detection, absorbance 410 nm); details: class symbols; read-out: sPLA2 Type IIa Inhibition (IC50; nM)
T2 construct: made in house; host or cells: E. coli
T2 sequence (P14555 21-144): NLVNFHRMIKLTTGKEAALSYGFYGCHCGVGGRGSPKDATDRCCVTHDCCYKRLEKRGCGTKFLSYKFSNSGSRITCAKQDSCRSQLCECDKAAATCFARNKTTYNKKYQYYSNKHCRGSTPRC
Text: as §1, §2, §3, §4

sPLA2-X protein = target: T3, sPLA2-X protein (Homo sapiens, UniProt O15496); assay: sPLA2-X enzyme inhibition assay (thio-PC substrate, DTNB detection, absorbance 410 nm); set-up: made in house; host or cells: E. coli; details: class symbols; read-out: sPLA2 Type X Inhibition (IC50; nM)
T3 sequence (O15496 43-165): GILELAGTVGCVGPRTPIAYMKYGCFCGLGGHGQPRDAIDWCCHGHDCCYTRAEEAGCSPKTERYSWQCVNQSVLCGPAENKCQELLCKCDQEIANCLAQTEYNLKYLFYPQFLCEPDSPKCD
Text: as §1, §2, §3, §4

Structure (SMILES) | IC50 [1] | IC50 [2] | IC50 (sPLA2-X protein)
NCc1cccc(-n2c(C(N)=O)cc3ccc(OC(F)(F)F)cc32)n1 [Compound 27, 1-(6-(aminomethyl)pyridin-2-yl)-6-(trifluoromethoxy)-1H-indole-2-carboxamide TFA salt] | > 5000 nM | > 1000 nM | > 200 nM
NC(=O)c1cc2ccc(OC(F)(F)F)cc2n1-c1cccc(C2CC2C(=O)O)c1 (racemic) [Compound 15, trans-2-(3-(2-carbamoyl-6-(trifluoromethoxy)-1H-indol-1-yl)phenyl)cyclopropane-1-carboxylic acid] | > 5000 nM | > 1000 nM | 20 to 50 nM
CC(C)(C)OC(=O)N1CC(CC(=O)O)c2cc(-n3c(C(N)=O)cc4ccc(OC(F)(F)F)cc43)ccc21 (stereo not drawn) [Compound 11, 2-(1-(tert-butoxycarbonyl)-5-(2-carbamoyl-6-(trifluoromethoxy)-1H-indol-1-yl)indolin-3-yl)acetic acid] | > 5000 nM | > 1000 nM | 50 to 200 nM
NC(=O)c1cc2ccc(OC(F)(F)F)cc2n1-c1ccc2c(c1)C(CC(=O)O)CO2 (single isomer, unassigned; (+)) [Compound 1a, (+)-2-(5-(2-carbamoyl-6-(trifluoromethoxy)-1H-indol-1-yl)-2,3-dihydrobenzofuran-3-yl)acetic acid] | > 5000 nM | > 1000 nM | 50 to 200 nM
NC(=O)c1cc2ccc(OC(F)(F)F)cc2n1-c1cccc(N2CC(C(=O)O)C2)n1 [Compound 52, 1-(6-(2-carbamoyl-6-(trifluoromethoxy)-1H-indol-1-yl)pyridin-2-yl)azetidine-3-carboxylic acid] | 1500 to 5000 nM | > 1000 nM | 50 to 200 nM
NC(=O)c1cc2ccc(OC(F)(F)F)cc2n1-c1cccc(C2CC2C(=O)O)n1 (racemic) [Compound 28, trans-(rac)-2-(6-(2-carbamoyl-6-(trifluoromethoxy)-1H-indol-1-yl)pyridin-2-yl)cyclopropane-1-carboxylic acid] | > 5000 nM | > 1000 nM | < 20 nM
NC(=O)c1cc2ccc(OC(F)(F)F)cc2n1-c1cccc(C2(CC(=O)O)CCC2)c1 [Compound 30, 2-(1-(3-(2-carbamoyl-6-(trifluoromethoxy)-1H-indol-1-yl)phenyl)cyclobutyl)acetic acid] | 1500 to 5000 nM | > 1000 nM | < 20 nM
NC(=O)c1cc2ccccc2n1-c1cccc(CCC(=O)O)c1 [Compound 21, 3-(3-(2-carbamoyl-1H-indol-1-yl)phenyl)propanoic acid] | > 5000 nM | > 1000 nM | > 200 nM
NC(=O)c1cc2ccc(OC(F)(F)F)cc2n1-c1cccc(C2CC2C(=O)O)c1 (single isomer, unassigned) [Compound 15b, trans-(−)-2-(3-(2-carbamoyl-6-(trifluoromethoxy)-1H-indol-1-yl)phenyl)cyclopropane-1-carboxylic acid] | > 5000 nM | > 1000 nM | 20 to 50 nM
NC(=O)c1cc2ccc(OC(F)(F)F)cc2n1-c1cccc(C(F)(F)CO)c1 [Compound 46, 1-(3-(1,1-difluoro-2-hydroxyethyl)phenyl)-6-(trifluoromethoxy)-1H-indole-2-carboxamide] | > 5000 nM | > 1000 nM | 50 to 200 nM
N[C@H](CC(=O)O)c1cccc(-n2c(C(=O)O)cc3ccc(OC(F)(F)F)cc32)c1 [Compound 43, (R)-1-(3-(1-amino-2-carboxyethyl)phenyl)-6-(trifluoromethoxy)-1H-indole-2-carboxylic acid] | > 5000 nM | > 1000 nM | > 200 nM
NC(=O)c1cc2ccc(OC(F)(F)F)cc2n1-c1cccc(CCC(=O)O)n1 [Compound 18, 3-(6-(2-carbamoyl-6-(trifluoromethoxy)-1H-indol-1-yl)pyridin-2-yl)propanoic acid] | 1500 to 5000 nM | > 1000 nM | < 20 nM
CS(=O)(=O)NCc1cccc(-n2c(C(N)=O)cc3ccc(OC(F)(F)F)cc32)n1 [Compound 33] | > 5000 nM | > 1000 nM | > 200 nM
NC(=O)c1sc2ccccc2c1-c1cccc(CCC(=O)O)c1 [Compound 13, 3-(3-(2-carbamoylbenzo[b]thiophen-3-yl)phenyl)propanoic acid] | > 5000 nM | > 1000 nM | > 200 nM
O=C(O)c1cc2ccc(OC(F)(F)F)cc2n1-c1cccc(C2(C(=O)O)CC2)n1 [Compound 39, 1-(6-(1-carboxycyclopropyl)pyridin-2-yl)-6-(trifluoromethoxy)-1H-indole-2-carboxylic acid] | > 5000 nM | > 1000 nM | > 200 nM
NC(=O)c1cc2ccc(OC(F)(F)F)cc2n1-c1cccc([C@@H]2C[C@H]2C(=O)O)n1 (single isomer, unassigned) [Compound 28b, trans-(+)-2-(6-(2-carbamoyl-6-(trifluoromethoxy)-1H-indol-1-yl)pyridin-2-yl)cyclopropane-1-carboxylic acid] | > 5000 nM | > 1000 nM | > 200 nM
C[C@@]1(c2cccc(-n3c(C(N)=O)cc4ccc(OC(F)(F)F)cc43)c2)C[C@H]1C(=O)O (relative stereo) [Compound 38b, trans-2-(3-(2-carbamoyl-6-(trifluoromethoxy)-1H-indol-1-yl)phenyl)-2-methylcyclopropane-1-carboxylic acid] | > 5000 nM | > 1000 nM | 20 to 50 nM
NC(=O)c1oc2ccccc2c1-c1cccc(CCC(=O)O)c1 [Compound 25, 3-(3-(2-carbamoylbenzofuran-3-yl)phenyl)propanoic acid] | > 5000 nM | > 1000 nM | > 200 nM
NC(=O)c1cc2ccc(OC(F)(F)F)cc2n1-c1cccc(CC2(C(=O)O)CCC2)c1 [Compound 10, 1-(3-(2-carbamoyl-6-(trifluoromethoxy)-1H-indol-1-yl)benzyl)cyclobutane-1-carboxylic acid] | 500 to 1500 nM | 500 to 1000 nM | 20 to 50 nM
NC(=O)c1cc2ccc(OC(F)(F)F)cc2n1-c1cccc(C2(NCC(=O)O)CCC2)n1 [Compound 50, (1-(6-(2-carbamoyl-6-(trifluoromethoxy)-1H-indol-1-yl)pyridin-2-yl)cyclobutyl)glycine] | > 5000 nM | > 1000 nM | 20 to 50 nM
